Where “and” joins values, the source holds several entries; their conditions need not be identical. Equal entries are not always repeated.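 Where inhibition never reached the appropriate level, the endpoint shown equals the highest concentration tested. Otherwise, values were interpolated linearly from a five-concentration, 48-hour dose response in 96-well plates. The concentration for 50% growth inhibition is given as GI50. The concentration for full growth arrest is given as TGI.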

The test system of one test is HOP-92 NSCLC. The test is described as follows: inhibition of tumour cell growth, NCI panel, 48 h.
`O=C(Cl)C1=C(c2ccccc2)C1c1ccccc1` (stereo unspecified) gave a TGI of more than 100 µM.

Regarding `c1cnn2ncc(-c3ccnc(Nc4ccc5c(c4)OCCO5)n3)c2c1`, the GI50 is 0.0593 µM and the TGI is 0.162 µM.

`Cc1ccc(-n2nc(C(C)(C)C)cc2NC(=O)NCc2cc(F)ccc2Oc2ccc3c(cnn3CCO)c2)cc1`: the GI50 was 8.06 µM and 5.1 µM; the TGI was > 10 µM and 95.2 µM.

`COc1ccc2c(NCCCCCCNc3c4ccccc4nc4cc(OC)ccc34)c3ccccc3nc2c1` had a TGI of 2.07 µM.

Take `COc1cccc2c(=O)c3c(sc12)c(NCCCNCCO)nc1ccccc13`: the GI50 was 1.32 µM and the TGI came out at 13.1 µM.

In the case of `O=C(O)c1ccccc1C(=O)c1ccc2c(c1)Cc1ccccc1-2`, the TGI was more than 100 µM.

`C=CC1=C(C)C2=NC1=CC1=NC(=CC3=C(C)C4=C(O)[C@H](C(=O)OC)C(=C5NC(=C2)[C@@H](C)[C@@H]5CCC(=O)O)C4=N3)C(CC)=C1C` yielded a TGI of 3.98 µM.

As to `COc1ccc(Nc2nccc(N3CCN(c4c5ccc(Cl)cc5nc5ccc(OC)cc45)CC3)n2)cc1`, the GI50 is 3.55 µM and the TGI was 77.1 µM.

With `CC(=Nc1ccc(S(N)(=O)=O)cc1)c1c(O)[nH]c2ccccc12`, the GI50 is more than 25 µM and the TGI is more than 25 µM.

For `CCn1c(-c2nonc2N)nc2ccncc21`, the GI50 was more than 25 µM and the TGI is more than 25 µM.

Take `CC(C)[O-].CC(C)[O-].CN(CCN(C)Cc1cc(F)cc(F)c1[O-])Cc1cc(F)cc(F)c1[O-].[Ti+4]`: the GI50 is 0.316 µM and the TGI is 1.18 µM.

Turning to `Clc1ccc2c(c1)N(c1ncnc3ccc(-c4cnc5[nH]ncc5c4)cc13)CC2`, the GI50 is 0.169 µM and the TGI was more than 100 µM.

For `COc1ccc(-c2cnoc2-c2cc(OC)c3c(c2)OCCO3)cc1`, the GI50 is 0.281 µM and the TGI stood at 41.7 µM.

As for `CC(C)Oc1ccc(C(=O)Cn2ccnc2)cc1-n1c(CN2CCN(C(=O)COc3ccc(Cl)cc3)CC2)nc2ccccc2c1=O`, the GI50 was 13.1 µM and the TGI was 35 µM.

`COc1cccc(COc2cc(-n3cnc4ccccc43)sc2C(N)=O)c1`: the GI50 was more than 5.9 µM and the TGI is more than 25 µM.

Regarding `CCN(CC)c1ccc(/C=C/C2=[N+](C)c3ccccc3C2(C)C)c(C)c1`, the GI50 was 0.0217 µM and the TGI stood at 0.148 µM.

The test system of the next test is SK-MEL-28 melanoma. The test is described as follows: inhibition of tumour cell growth, NCI panel, 48 h.
The compound `O=C(Cl)C1=C(c2ccccc2)C1c1ccccc1` (stereo unspecified) came in with a TGI of more than 100 µM.

As to `c1cnn2ncc(-c3ccnc(Nc4ccc5c(c4)OCCO5)n3)c2c1`, the GI50 is 0.0544 µM and the TGI amounted to 0.199 µM.

In the case of `Cc1ccc(-n2nc(C(C)(C)C)cc2NC(=O)NCc2cc(F)ccc2Oc2ccc3c(cnn3CCO)c2)cc1`, the GI50 was 0.511 µM and 0.989 µM; the TGI was more than 20.9 µM.

As to `COc1cccc2c(=O)c3c(sc12)c(NCCCNCCO)nc1ccccc13`, the GI50 is 1.9 µM and the TGI is 3.46 µM.

`O=C(O)c1ccccc1C(=O)c1ccc2c(c1)Cc1ccccc1-2` registered a TGI of more than 100 µM.

With `C=CC1=C(C)C2=NC1=CC1=NC(=CC3=C(C)C4=C(O)[C@H](C(=O)OC)C(=C5NC(=C2)[C@@H](C)[C@@H]5CCC(=O)O)C4=N3)C(CC)=C1C`, the TGI stood at 3.54 µM.

In the case of `COc1ccc(Nc2nccc(N3CCN(c4c5ccc(Cl)cc5nc5ccc(OC)cc45)CC3)n2)cc1`, the GI50 was 39.5 µM and the TGI was more than 100 µM.

As for `CC(=Nc1ccc(S(N)(=O)=O)cc1)c1c(O)[nH]c2ccccc12`, the GI50 is more than 25 µM and the TGI is more than 25 µM.

Consider `CCn1c(-c2nonc2N)nc2ccncc21`, for which the GI50 is more than 25 µM and the TGI is more than 25 µM.

As to `CC(C)[O-].CC(C)[O-].CN(CCN(C)Cc1cc(F)cc(F)c1[O-])Cc1cc(F)cc(F)c1[O-].[Ti+4]`, the GI50 is 0.692 µM and the TGI came out at 2.17 µM.

Turning to `Clc1ccc2c(c1)N(c1ncnc3ccc(-c4cnc5[nH]ncc5c4)cc13)CC2`, the GI50 is 0.77 µM and the TGI is more than 100 µM.

Take `COc1ccc(-c2cnoc2-c2cc(OC)c3c(c2)OCCO3)cc1`: the GI50 is 10.1 µM and the TGI was more than 100 µM.

For `CC(C)Oc1ccc(C(=O)Cn2ccnc2)cc1-n1c(CN2CCN(C(=O)COc3ccc(Cl)cc3)CC2)nc2ccccc2c1=O`, the GI50 is 14.1 µM and the TGI amounted to 29.9 µM.

With `COc1cccc(COc2cc(-n3cnc4ccccc43)sc2C(N)=O)c1`, the GI50 is more than 24 µM and the TGI was more than 25 µM.

`CCN(CC)c1ccc(/C=C/C2=[N+](C)c3ccccc3C2(C)C)c(C)c1`: the GI50 is 0.151 µM and the TGI is 2.73 µM.

The next test deals with SR leukemia. Kind of test: inhibition of tumour cell growth, NCI panel, 48 h.
For `O=C(Cl)C1=C(c2ccccc2)C1c1ccccc1` (stereo unspecified), the TGI was more than 100 µM.

Consider `c1cnn2ncc(-c3ccnc(Nc4ccc5c(c4)OCCO5)n3)c2c1`, for which the GI50 is 0.0466 µM.

Regarding `Cc1ccc(-n2nc(C(C)(C)C)cc2NC(=O)NCc2cc(F)ccc2Oc2ccc3c(cnn3CCO)c2)cc1`, the GI50 is > 10 µM and 1.12 µM; the TGI was > 10 µM and 4.33 µM.

The compound `COc1ccc2c(NCCCCCCNc3c4ccccc4nc4cc(OC)ccc34)c3ccccc3nc2c1` registered a TGI of 1.54 µM.

For `COc1cccc2c(=O)c3c(sc12)c(NCCCNCCO)nc1ccccc13`, the GI50 is 1.45 µM and the TGI was determined as 3.83 µM.

Compound `O=C(O)c1ccccc1C(=O)c1ccc2c(c1)Cc1ccccc1-2` registered a TGI of more than 100 µM.

Consider `C=CC1=C(C)C2=NC1=CC1=NC(=CC3=C(C)C4=C(O)[C@H](C(=O)OC)C(=C5NC(=C2)[C@@H](C)[C@@H]5CCC(=O)O)C4=N3)C(CC)=C1C`, for which the TGI came to 1.5 µM.

Regarding `COc1ccc(Nc2nccc(N3CCN(c4c5ccc(Cl)cc5nc5ccc(OC)cc45)CC3)n2)cc1`, the GI50 is 2.92 µM and the TGI is more than 100 µM.

For `CC(=Nc1ccc(S(N)(=O)=O)cc1)c1c(O)[nH]c2ccccc12`, the GI50 was more than 25 µM and the TGI is more than 25 µM.

Regarding `CCn1c(-c2nonc2N)nc2ccncc21`, the GI50 was more than 25 µM and the TGI is more than 25 µM.

`CC(C)[O-].CC(C)[O-].CN(CCN(C)Cc1cc(F)cc(F)c1[O-])Cc1cc(F)cc(F)c1[O-].[Ti+4]`: the GI50 was 0.512 µM.

For `Clc1ccc2c(c1)N(c1ncnc3ccc(-c4cnc5[nH]ncc5c4)cc13)CC2`, the GI50 is 0.722 µM and the TGI is more than 100 µM.

As for `COc1ccc(-c2cnoc2-c2cc(OC)c3c(c2)OCCO3)cc1`, the GI50 was 0.0226 µM and the TGI came to 6.29 µM.

With `CC(C)Oc1ccc(C(=O)Cn2ccnc2)cc1-n1c(CN2CCN(C(=O)COc3ccc(Cl)cc3)CC2)nc2ccccc2c1=O`, the GI50 is 5.64 µM and the TGI came to 36.8 µM.

As to `COc1cccc(COc2cc(-n3cnc4ccccc43)sc2C(N)=O)c1`, the GI50 is 6.98 µM and the TGI is more than 25 µM.

Turning to `CCN(CC)c1ccc(/C=C/C2=[N+](C)c3ccccc3C2(C)C)c(C)c1`, the GI50 is 0.0275 µM and the TGI stood at 1.71 µM.

A further test relates to OVCAR-3 ovarian. Kind of test: inhibition of tumour cell growth, NCI panel, 48 h.
The compound `O=C(Cl)C1=C(c2ccccc2)C1c1ccccc1` (stereo unspecified) yielded a TGI of more than 100 µM.

For the compound `c1cnn2ncc(-c3ccnc(Nc4ccc5c(c4)OCCO5)n3)c2c1`, the GI50 is 0.0548 µM and the TGI came out at 0.142 µM.

Turning to `Cc1ccc(-n2nc(C(C)(C)C)cc2NC(=O)NCc2cc(F)ccc2Oc2ccc3c(cnn3CCO)c2)cc1`, the GI50 was > 10 µM and 7.65 µM; the TGI is more than 76.5 µM.

For the compound `COc1ccc2c(NCCCCCCNc3c4ccccc4nc4cc(OC)ccc34)c3ccccc3nc2c1`, the TGI is 1.76 µM.

For `COc1cccc2c(=O)c3c(sc12)c(NCCCNCCO)nc1ccccc13`, the GI50 was 1.64 µM and the TGI was found to be 3.16 µM.

For the compound `O=C(O)c1ccccc1C(=O)c1ccc2c(c1)Cc1ccccc1-2`, the TGI was more than 100 µM.

As to `COc1ccc(Nc2nccc(N3CCN(c4c5ccc(Cl)cc5nc5ccc(OC)cc45)CC3)n2)cc1`, the GI50 was 11.1 µM and the TGI is more than 100 µM.

With `CC(=Nc1ccc(S(N)(=O)=O)cc1)c1c(O)[nH]c2ccccc12`, the GI50 was more than 25 µM and the TGI was more than 25 µM.

As to `CCn1c(-c2nonc2N)nc2ccncc21`, the GI50 was more than 25 µM and the TGI was more than 25 µM.

`CC(C)[O-].CC(C)[O-].CN(CCN(C)Cc1cc(F)cc(F)c1[O-])Cc1cc(F)cc(F)c1[O-].[Ti+4]`: the GI50 is 0.923 µM and the TGI is 6.78 µM.

In the case of `Clc1ccc2c(c1)N(c1ncnc3ccc(-c4cnc5[nH]ncc5c4)cc13)CC2`, the GI50 was 0.471 µM and the TGI is more than 100 µM.

Consider `COc1ccc(-c2cnoc2-c2cc(OC)c3c(c2)OCCO3)cc1`, for which the GI50 is less than 0.0172 µM and the TGI is 1.55 µM.

For `CC(C)Oc1ccc(C(=O)Cn2ccnc2)cc1-n1c(CN2CCN(C(=O)COc3ccc(Cl)cc3)CC2)nc2ccccc2c1=O`, the GI50 is 2.18 µM and the TGI worked out at 13.2 µM.

On to `COc1cccc(COc2cc(-n3cnc4ccccc43)sc2C(N)=O)c1`, for which the GI50 was 5.09 µM and the TGI was more than 25 µM.

`CCN(CC)c1ccc(/C=C/C2=[N+](C)c3ccccc3C2(C)C)c(C)c1`: the GI50 was 0.0616 µM and the TGI was 1.47 µM.

A further test relates to MDA-MB-231 breast. Kind of test: inhibition of tumour cell growth, NCI panel, 48 h.
`O=C(Cl)C1=C(c2ccccc2)C1c1ccccc1` (stereo unspecified) returned a TGI of more than 100 µM.

For the compound `c1cnn2ncc(-c3ccnc(Nc4ccc5c(c4)OCCO5)n3)c2c1`, the GI50 is 0.0914 µM and the TGI was more than 25 µM.

Turning to `Cc1ccc(-n2nc(C(C)(C)C)cc2NC(=O)NCc2cc(F)ccc2Oc2ccc3c(cnn3CCO)c2)cc1`, the GI50 is 2.6 µM and 2.57 µM; the TGI is more than 58.9 µM.

`COc1ccc2c(NCCCCCCNc3c4ccccc4nc4cc(OC)ccc34)c3ccccc3nc2c1`: the TGI is 0.385 µM.

Take `COc1cccc2c(=O)c3c(sc12)c(NCCCNCCO)nc1ccccc13`: the GI50 was 1.35 µM and the TGI was 2.86 µM.

In turn, `O=C(O)c1ccccc1C(=O)c1ccc2c(c1)Cc1ccccc1-2` returned a TGI of more than 100 µM.

`C=CC1=C(C)C2=NC1=CC1=NC(=CC3=C(C)C4=C(O)[C@H](C(=O)OC)C(=C5NC(=C2)[C@@H](C)[C@@H]5CCC(=O)O)C4=N3)C(CC)=C1C`: the TGI is more than 60.5 µM.

Regarding `COc1ccc(Nc2nccc(N3CCN(c4c5ccc(Cl)cc5nc5ccc(OC)cc45)CC3)n2)cc1`, the GI50 was 4.63 µM and the TGI was more than 100 µM.

Regarding `CC(=Nc1ccc(S(N)(=O)=O)cc1)c1c(O)[nH]c2ccccc12`, the GI50 is more than 25 µM and the TGI was more than 25 µM.

On to `CCn1c(-c2nonc2N)nc2ccncc21`, for which the GI50 was more than 25 µM and the TGI was more than 25 µM.

In the case of `CC(C)[O-].CC(C)[O-].CN(CCN(C)Cc1cc(F)cc(F)c1[O-])Cc1cc(F)cc(F)c1[O-].[Ti+4]`, the GI50 was 1.67 µM and the TGI turned out to be 10.5 µM.

For the compound `Clc1ccc2c(c1)N(c1ncnc3ccc(-c4cnc5[nH]ncc5c4)cc13)CC2`, the GI50 is 0.719 µM and the TGI was more than 100 µM.

Take `COc1ccc(-c2cnoc2-c2cc(OC)c3c(c2)OCCO3)cc1`: the GI50 is 0.0509 µM.

`CC(C)Oc1ccc(C(=O)Cn2ccnc2)cc1-n1c(CN2CCN(C(=O)COc3ccc(Cl)cc3)CC2)nc2ccccc2c1=O`: the GI50 is 4.32 µM and the TGI is 19.7 µM.

In the case of `COc1cccc(COc2cc(-n3cnc4ccccc43)sc2C(N)=O)c1`, the GI50 was 14.8 µM and the TGI was more than 25 µM.

For `CCN(CC)c1ccc(/C=C/C2=[N+](C)c3ccccc3C2(C)C)c(C)c1`, the GI50 is 0.101 µM and the TGI turned out to be 2.27 µM.

Another test concerns K-562 leukemia. The test is described as follows: inhibition of tumour cell growth, NCI panel, 48 h.
The compound `O=C(Cl)C1=C(c2ccccc2)C1c1ccccc1` (stereo unspecified) gave a TGI of more than 100 µM.

The values are drawn from PubChem BioAssay (NCI).
